In brackets after ≈: the same amount, converted by molar mass.
Tests used:
[1] = cited from earlier work
[2] = system: guinea pig papillary muscle; conditions: 0.4 µM; cited from earlier work
[3] = Surfactant-assisted rapid release of BF211@Lipo; assay type: physicochemical

Compound	solubility [1] [mg/mL]	effect on papillary muscle [2]	release-promoting effect on BF211@Lipo [3]
C[C@]12CC[C@H](O)C[C@H]1CC[C@@H]1[C@@H]2CC[C@]2(C)[C@@H](c3ccc(=O)oc3)CC[C@]12O [BF, Bufalin]	0.01 (≈ 25.9 µM)	arrhythmias	
Tween 80			weak and unregulated release-promoting effect
